Where two headings read alike, the source gives them in different places.
What was measured:
human P2X7 receptor = human P2X7 receptor (Homo sapiens (Human), UniProt Q99572); experiment: Pore permeation assay (YO PRO dye uptake); type: cell-based
Description: Agonist-induced pore formation was determined by measuring cellular uptake of YO PRO fluorescence dye in HEK293 transfected with human P2X7 receptor. A HEK293 cell over expressing human P2X7 was harvested using HQTase reagent to detach the cells from T75 cm flask. The harvested cells are centrifuged @1200 rpm for 5 min at room temperature. The viability of cells was determined by Trypan blue dye and the cells are plated @10,000 cell/well in 50 ul volume in a 384W BD Poly lysine coated plate and incubated overnight at 37 C. […] The plate was centrifuged at 1000 rpm for 5 seconds and incubated at room temperature for 30 minutes. The uptake of YO PRO dye into the cells was measured using Envision Fluorescence plate reader instrument (Perkin Elmer).

[1] = biological target: P2X7 (IL-1β release from THP-1 cells) (Homo sapiens (Human), UniProt Q99572); experiment: IL-1β release assay; type: cell-based
Sequence of P2X7 (IL-1β release from THP-1 cells) (Q99572 whole entry): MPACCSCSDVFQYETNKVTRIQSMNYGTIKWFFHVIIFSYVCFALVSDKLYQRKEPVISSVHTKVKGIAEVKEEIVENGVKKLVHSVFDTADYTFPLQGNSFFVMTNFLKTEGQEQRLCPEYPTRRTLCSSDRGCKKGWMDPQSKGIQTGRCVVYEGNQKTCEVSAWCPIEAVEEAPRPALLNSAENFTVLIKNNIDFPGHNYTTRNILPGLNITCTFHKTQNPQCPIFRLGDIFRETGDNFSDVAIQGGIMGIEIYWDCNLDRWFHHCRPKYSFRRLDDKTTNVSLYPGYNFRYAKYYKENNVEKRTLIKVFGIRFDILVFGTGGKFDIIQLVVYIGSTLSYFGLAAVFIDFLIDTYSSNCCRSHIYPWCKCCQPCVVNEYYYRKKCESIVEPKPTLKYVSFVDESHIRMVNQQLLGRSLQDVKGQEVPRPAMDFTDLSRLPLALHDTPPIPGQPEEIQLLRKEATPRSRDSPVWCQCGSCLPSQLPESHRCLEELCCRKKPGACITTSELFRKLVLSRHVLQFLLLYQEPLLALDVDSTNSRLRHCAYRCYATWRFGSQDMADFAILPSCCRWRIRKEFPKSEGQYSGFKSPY
Description: IL-1β release assay: The activation of P2X7 by ATP leads to a fast transient activation of cells resulting in influx of Ca^2+ followed by conversion of pro-IL-1β to active IL-1β. The functional activity of P2X7 compounds was measured by the release of mature […] in the culture medium of THP-1 cells, detected by sandwich ELISA. […] THP-1 cells were harvested from the flask in 50 ml by centrifugation for 3 min at 100 g. The cells were resuspended to 2×10^5 cells/ml in medium supplemented with 0.5 μM PMA and incubated. The cells were washed and resuspended to 1.5×10^5 cells/ml in medium complemented with 10 ng/ml LPS, and the cells were primed for 4 h at 37° C., 5% CO2. After addition of 20 μL of prediluted test compounds, blank, standard and control reagents, cells were incubated for a further 20 min at 37° C. and stimulated with 0.8 mM BzATP for 30 minutes. The cells were centrifuged, supernatant was collected and the presence of mature IL-1β was detected using Dual human IL-1b kit following manufacturer's instruction. The tetrahydrobenzodiazepine analogs effectively modulated the activity of P2X7 in the cells as measured by the levels of pro-inflammatory cytokine IL-1β, which is released by the activation of P2X7 receptor.

[2] = HEK293 transfected with human P2X7, BzATP 10 uM, YO PRO dye uptake, read-out: hP2X7 IC50
[3] = THP-1 cells, LPS primed, 0.8 mM BzATP, mature IL-1β by sandwich ELISA, read-out: hTHP-1/IL-ib IC50

Sequence of human P2X7 receptor (Q99572 whole entry): as above

| SMILES | IC50 (human P2X7 receptor) [nM] | IC50 [1] [nM] | IC50 (human P2X7 receptor; [2]) [nM] | IC50 [1, 3] [nM] |
| --- | --- | --- | --- | --- |
| O=C(NCC1CCCC(F)(F)C1)c1cn(C2COC2)c2cccc(Cl)c12 (racemic) [Compound 69, 4-chloro-N-((3,3-difluorocyclohexyl)methyl)-1-(oxetan-3-yl)-1H-indole-3-carboxamide] | 10 to 100 | 101 to 500 | – | – |
| O=C(NCC1(O)CCCC(F)(F)C1)c1cn(C2COC2)c2cccc(Cl)c12 (racemic) [Compound 86, 4-chloro-N-((3,3-difluoro-1-hydroxycyclohexyl)methyl)-1-(oxetan-3-yl)-1H-indole-3-carboxamide] | 10 to 100 | 10 to 100 | – | – |
| CC1CC(F)(F)CC(O)(CNC(=O)c2cn(CC(F)(F)F)c3cccc(Cl)c23)C1 (centres unmarked) [Compound 1, 4-chloro-N-((3,3-difluoro-1-hydroxy-5-methylcyclohexyl)methyl)-1-(2,2,2-trifluoroethyl)-1H-indole-3-carboxamide] | – | – | 101 to 500 | > 1000 |
| C[C@H]1CCC[C@@](O)(CNC(=O)c2cn(CC(F)(F)F)c3cccc(Cl)c23)C1 [Compound 2, 4-chloro-N-(((1S,3S)-1-hydroxy-3-methylcyclohexyl)methyl)-1-(2,2,2-trifluoroethyl)-1H-indole-3-carboxamide] | 10 to 100 | 10 to 100 | – | – |
| C[C@@H]1CCC[C@](O)(CNC(=O)c2cn(CC(F)(F)F)c3cccc(Cl)c23)C1 [Compound 3, 4-chloro-N-(((1R,3R)-1-hydroxy-3-methylcyclo-hexyl)methyl)-1-(2,2,2-trifluoroethyl)-1H-indole-3-carboxamide] | 10 to 100 | 101 to 500 | – | – |
| O=C(NCC1(O)CCC(F)(F)CC1)c1cn(CC(F)(F)F)c2cccc(Cl)c12 [Compound 4, 4-chloro-N-((4,4-difluoro-1-hydroxycyclohexyl)methyl)-1-(2,2,2-trifluoroethyl)-1H-indole-3-carboxamide] | 10 to 100 | 101 to 500 | – | – |
| O=C(NCC1CCC(F)(F)CC1)c1cn(CC(F)(F)F)c2cccc(Cl)c12 [Compound 5, 4-chloro-N-((4,4-difluorocyclohexyl)methyl)-1-(2,2,2-trifluoroethyl)-1H-indole-3-carboxamide] | 10 to 100 | 101 to 500 | – | – |
| NCCn1cc(C(=O)NCC2CCC(F)(F)CC2)c2c(Cl)cccc21 [Compound 6, 1-(2-aminoethyl)-4-chloro-N-((4,4-difluorocyclo-hexyl)methyl)-1H-indole-3-carboxamide] | 101 to 500 | 10 to 100 | – | – |
| C[C@H]1CCC[C@@](O)(CNC(=O)c2cn(CCC(F)F)c3cccc(Cl)c23)C1 [Compound 7] | – | 10 to 100 | < 10 | – |
| C[C@@H]1CCC[C@](O)(CNC(=O)c2cn(CCC(F)F)c3cccc(Cl)c23)C1 [Compound 8, 4-Chloro-1-(3,3-difluoro-propyl)-1H-indole-3-carboxylic acid ((1R,3R)-1-hydroxy-3-methyl-cyclohexylmethyl)-amide] | 10 to 100 | 101 to 500 | – | – |
| O=C(NCC1CCCC(F)(F)C1)c1cn(CCC(F)F)c2cccc(Cl)c12 (centres unmarked) [Compound 9, 4-Chloro-1-(3,3-difluoro-propyl)-1H-indole-3-carboxylic acid (3,3-difluoro-cyclohexylmethyl)-amide] | – | 101 to 500 | < 10 | – |
| O=C(NCC1(O)CCC(F)(F)CC1)c1cn(CCC(F)F)c2cccc(Cl)c12 [Compound 10, 4-Chloro-1-(3,3-difluoro-propyl)-1H-indole-3-carboxylic acid (4,4-difluoro-1-hydroxy-cyclohexylmethyl)-amide] | 10 to 100 | 101 to 500 | – | – |
| O=C(NCC1(O)CCC(F)(F)CC1)c1cn(CCC(F)(F)F)c2cccc(Cl)c12 [Compound 12, 4-chloro-N-((4,4-difluoro-1-hydroxycyclohexyl)methyl)-1-(3,3,3-trifluoropropyl)-1H-indole-3-carboxamide] | 101 to 500 | 500 to 999 | – | – |
| O=C(NCC1CCC(F)(F)CC1)c1cn(CCC(F)(F)F)c2cccc(Cl)c12 [Compound 13, 4-chloro-N-((4,4-difluorocyclohexyl)methyl)-1-(3,3,3-trifluoropropyl)-1H-indole-3-carboxamide] | 10 to 100 | 10 to 100 | – | – |
| COCCn1cc(C(=O)NCC2(OC)CCC(F)(F)CC2)c2c(Cl)cccc21 [Compound 17, 4-Chloro-1-(2-methoxy-ethyl)-1H-indole-3-carboxylic acid (4,4-difluoro-1-methoxy-cyclohexylmethyl)-amide] | 10 to 100 | 101 to 500 | – | – |
| COCCn1cc(C(=O)NCC2(O)CCCCC2O)c2c(Cl)cccc21 (centres unmarked) [Compound 18, 4-Chloro-1-(2-methoxy-ethyl)-1H-indole-3-carboxylic acid (1,2-dihydroxy-cyclohexylmethyl)-amide] | – | – | > 1000 | > 1000 |
| COCCn1cc(C(=O)NCC2(O)CCCCC2)c2c(Cl)cccc21 [Compound 19, 4-Chloro-1-(2-methoxy-ethyl)-1H-indole-3-carboxylic acid (1-hydroxy-cyclohexyl methyl)-amide] | 10 to 100 | 101 to 500 | – | – |
| COCCn1cc(C(=O)NC[C@]2(O)CCCC(F)(F)C2)c2c(Cl)cccc21 [Compound 20, (S)-4-chloro-N-((3,3-difluoro-1-hydroxycyclohexyl)methyl)-1-(2-methoxyethyl)-1H-indole-3-carboxamide] | 10 to 100 | 101 to 500 | – | – |
| COCCn1cc(C(=O)NC[C@@]2(O)CCCC(F)(F)C2)c2c(Cl)cccc21 [Compound 21, (R)-4-chloro-N-((3,3-difluoro-1-hydroxycyclohexyl)methyl)-1-(2-methoxyethyl)-1H-indole-3-carboxamide] | – | 10 to 100 | < 10 | – |
| CCC1CCCC(O)(CNC(=O)c2cn(CCOC)c3cccc(Cl)c23)C1 (centres unmarked) [Compound 22, 4-chloro-N-((3-ethyl-1-hydroxycyclohexyl)methyl)-1-(2-methoxyethyl)-1H-indole-3-carboxamide] | 101 to 500 | – | – | > 1000 |
| CCOC(C)CNC(=O)c1cn(C2COC2)c2cccc(Cl)c12 (centres unmarked) [Compound 78, 4-Chloro-1-oxetan-3-yl-1H-indole-3-carboxylic acid (2-ethoxy-propyl)-amide] | – | – | > 1000 | – |
| CC1CC(O)(CNC(=O)c2cn(C3CCCO3)c3cccc(Cl)c23)CCC1(F)F (centres unmarked) [Compound 97, 4-chloro-N-((4,4-difluoro-1-hydroxy-3-methylcyclohexyl)methyl)-1-(tetrahydrofuran-2-yl)-1H-indole-3-carboxamide] | 101 to 500 | – | – | – |
| O=C(NCC1CCC(F)(F)CC1)c1cn(C2CCCO2)c2cccc(Cl)c12 (centres unmarked) [Compound 99, 4-chloro-N-((4,4-difluorocyclohexyl)methyl)-1-(tetrahydrofuran-2-yl)-1H-indole-3-carboxamide] | 101 to 500 | – | – | – |
| CC(C)(CNC(=O)c1cn(C2CCOC2)c2cccc(Cl)c12)C1CCCC1 (centres unmarked) [Compound 103, 4-Chloro-1-(tetrahydro-furan-3-yl)-1H-indole-3-carboxylic acid (2-cyclopentyl-2-methyl-propyl)-amide] | 101 to 500 | – | – | – |
| O=C(NCC1(O)CCC(F)(F)CC1)c1cn(C2CCOC2)c2cccc(Cl)c12 (centres unmarked) [Compound 104, 4-Chloro-1-(tetrahydro-furan-3-yl)-1H-indole-3-carboxylic acid (4,4-difluoro-1-hydroxy-cyclohexylmethyl)-amide] | 101 to 500 | – | – | – |
| O=C(NC(CCO)C1CCCCC1)c1cn(C2CCOC2)c2cccc(Cl)c12 (centres unmarked) [Compound 110, 4-Chloro-1-(tetrahydro-furan-3-yl)-1H-indole-3-carboxylic acid (1-cyclohexyl-3-hydroxy-propyl)-amide] | 101 to 500 | – | – | – |
| CN(C)C(CNC(=O)c1cn(C2CCOC2)c2cccc(Cl)c12)C1CCCCC1 (centres unmarked) [Compound 111, 4-Chloro-1-(tetrahydro-furan-3-yl)-1H-indole-3-carboxylic acid (2-cyclohexyl-2-dimethylamino-ethyl)-amide] | – | – | > 1000 | – |
| O=C(NCC1(O)CCCC(C(F)(F)F)C1)c1cn(CC2CCCO2)c2cccc(Cl)c12 (centres unmarked) [Compound 136, 4-chloro-N-((1-hydroxy-3-(trifluoromethyl)cyclohexyl)methyl)-1-((tetrahydrofuran-2-yl)methyl)-1H-indole-3-carboxamide] | – | – | > 1000 | – |
| O=C(NCC1CCC(F)(F)CC1)c1cn(C2CC3(CNC3)C2)c2cccc(Cl)c12 (centres unmarked) [Compound 172, 4-chloro-N-((4,4-difluorocyclohexyl)methyl)-1-(2-azaspiro[3.3]heptan-6-yl)-1H-indole-3-carboxamide] | 500 to 999 | – | – | – |
| O=C(NCC1(O)CCCC(F)(F)C1)c1cn(CCN2CCCCC2)c2cccc(Cl)c12 (centres unmarked) [Compound 192, 4-chloro-N-((3,3-difluoro-1-hydroxycyclohexyl)methyl)-1-(2-(piperidin-1-yl)ethyl)-1H-indole-3-carboxamide] | 101 to 500 | – | – | – |

From patent publication US10323000B2, “Indole derivatives and their use in neurodegenerative diseases” (priority 2014, dated 2019)
